Experimental data: patent US12258339B2, “Macrocyclic complexes of alpha-emitting radionuclides and their use in targeted radiotherapy of cancer” (Cornell University, priority 2018, dated 2025)

Tests used:
[1] = Kinetic inertness of [^225Ac(macropa)]^+: challenge with 50-fold excess La^3+; assay type: physicochemical; conditions: 50-fold excess of La^3+, macropa 0.59 μM, RT, over 7 days
Procedure: General. Stock solutions of La(NO3)3 (0.001 M or 0.1 M) were prepared in H2O. To the radiolabeled samples containing macropa (10 μL of 10^−5 M stock; 1.0×10^−10 moles) or DOTA (10 μL of 10^−3 M stock; 1.0×10^−8 moles) and ^225Ac (10 μL, 26 kBq) in NH4OAc buffer (pH 6, 0.15 M, 150 μL), a 50-fold mole excess of La^3+ was added (5 μL, of 0.001 M or 0.1 M stock were added to solutions containing macropa and DOTA, respectively). The solutions were kept at room temperature and analyzed by iTLC at several time points over the course of 8 days. The iTLC plates were developed using citric acid (0.05 M, pH 5) as the eluent. Under these conditions, [^225Ac(macropa)]^+ and [^225Ac(DOTA)]^− remained at the baseline (RF=0) and any unchelated ^225Ac (^225Ac-citrate) migrated with the solvent front (RF=1). Percent of complex remaining intact was calculated by integrating area under the peaks on the radiochromatogram and dividing the counts associated with the ^225Ac-complex (RF=0) by the total counts integrated along the length of the iTLC plate.
The long half-life of ^225Ac necessitates its stable complex retention in vivo to avoid off-target damage to normal tissues arising from the release of free ^225Ac^3+. Furthermore, the stability of ^225Ac complexes against transmetalation and transchelation needs to be high. […]

[2] = Stability of [^225Ac(macropa)]^+ in human serum; assay type: in vitro ADME; conditions: radio-TLC
Procedure: […]. [^225Ac(macropa)]^+ and [^225Ac(DOTA)]^− were prepared using 10^−5 M and 10^−3 M stock solutions (10 μL) of macropa and DOTA, respectively, to give final ligand concentrations of 5.9×10^−7 M (macropa) and 5.9×10^−5 M (DOTA). After confirming a radiochemical yield of >90% by TLC using 0.4 M sodium citrate (pH 4) containing 10% MeOH as the mobile phase, 160 μL of human serum (an equal volume based on labeling reaction volume) were added to each radiolabeled solution. A control solution was also prepared in which water was substituted for ligand. The solutions were monitored over the course of 8 days by iTLC. The plates were developed with EDTA (50 mM, pH 5) as the eluent. Under these conditions, [^225Ac(macropa)]^+ and [^225Ac(DOTA)]^− complexes remained at the baseline (RF=0) and any ^225Ac (^225Ac-EDTA) that had been transchelated by serum migrated with the solvent front (RF=1). Percent of complex remaining intact was calculated.
The long half-life of ^225Ac necessitates its stable complex retention in vivo to avoid off-target damage to normal tissues arising from the release of free ^225Ac^3+. Furthermore, the stability of ^225Ac complexes against transmetalation and transchelation needs to be high. To determine the kinetic inertness, [^225Ac(macropa)]^+ was challenged with La^3+ because of the established high affinity of macropa for this metal ion. […]

O=C([O-])c1cccc(CN2CCOCCOCCN(Cc3cccc(C(=O)[O-])n3)CCOCCOCC2)n1.[225Ac+3] [[^225Ac(macropa)]^+]
^225Ac complex remained intact by radio-TLC [1]: 98% | time ^225Ac^3+ remains complexed in human serum [2]: at least 8 days
